Laboratory results published in paper PMC6403271, “Characterization, mechanism of action and optimization of activity of a novel peptide-peptoid hybrid against bacterial pathogens involved in canine skin infections” (Scientific Reports, 2019).
Square brackets hold non-standard residues; d marks the D form. Peptide text beside a SMILES is read from it. N(1-naphthylmethyl)Gly = O=C(O)CNCc1cccc2ccccc12; N(4-MeBn)Gly = Cc1ccc(CNCC(=O)O)cc1; NBuGly = CCCCNCC(=O)O

Test system: MRSP E104
Assay: Time-kill kinetics, MRSP E104
Format: cell-based, Staphylococcus pseudintermedius
Description: Time kill assays were performed in triplicate, meaning that every value is the average of three different samplings. Time–kill kinetic assays were performed using P. aeruginosa (26314), MRSP E104 and/or MRSP C22963 to determine the cell killing activity of B1 and two of its most promising analogues (compounds 23 and 26) based on prior antimicrobial susceptibility testing. The method reported by Blondeau et al.[63] was followed with minor modifications. […] After 0, 15, 30, 60, 120, 180 and 300 min of growth, 100 μL aliquots were collected and 10-fold serially diluted. Twenty μL of cell suspension from each dilution were spotted in triplicate on blood agar plates followed by 16–18 h incubation at 37 °C and determination of colony forming units (CFU).

For `CCCCN(CC(=O)N[C@@H](CCCCN)C(=O)N(CC(=O)N(CC(=O)N(CC(N)=O)Cc1cccc2ccccc12)Cc1ccc(C)cc1)Cc1cccc2ccccc12)C(=O)[C@H](CCCCN)NC(=O)[C@@H](N)CCCCN` [B1, Lys-Lys-(NBu)Gly-Lys-(N1-Nal)Gly-(N4-MeBn)Gly-(N1-Nal)Gly] (H-KK[NBuGly]K[N(1-naphthylmethyl)Gly][N(4-MeBn)Gly][N(1-naphthylmethyl)Gly]-NH2), the “time to complete killing of MRSP E104” value (2 × MIC) was 2 h, the “time to complete killing of MRSP E104” value (4 × MIC) was 1 h and the “time to kill MRSP” value (8 x MIC) was “less than 30 min”.
